Data on four compounds can be found in ChEMBL document CHEMBL2163217, “A straightforward approach for engineering efficacy and selectivity at GPCRs” (J Med Chem, 2012).

Assay type in all cases: functional
The target in assay [1] is D(3) dopamine receptor (Homo sapiens) (UniProt P35462). Put plainly: Partial agonist activity at D3 receptor relative to control.
Assay [2] deals with D(2) dopamine receptor (Homo sapiens) (UniProt P14416). As to the kind of experiment: Partial agonist activity at D2 receptor relative to control.
D(2) dopamine receptor (Homo sapiens), sequence (P14416 whole entry): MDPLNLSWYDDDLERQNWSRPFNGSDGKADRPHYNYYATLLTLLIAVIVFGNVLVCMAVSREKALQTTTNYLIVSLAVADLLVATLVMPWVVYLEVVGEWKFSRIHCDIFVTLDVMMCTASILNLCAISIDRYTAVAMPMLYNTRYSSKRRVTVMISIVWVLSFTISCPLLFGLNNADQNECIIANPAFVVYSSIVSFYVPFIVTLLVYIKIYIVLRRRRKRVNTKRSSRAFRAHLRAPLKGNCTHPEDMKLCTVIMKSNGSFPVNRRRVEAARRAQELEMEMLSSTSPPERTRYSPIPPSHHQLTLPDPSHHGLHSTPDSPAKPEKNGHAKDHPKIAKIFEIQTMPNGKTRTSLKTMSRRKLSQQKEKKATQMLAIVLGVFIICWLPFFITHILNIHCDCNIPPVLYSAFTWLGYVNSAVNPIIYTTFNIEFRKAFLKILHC
In assay [3] the target is D(3) dopamine receptor (Homo sapiens) (UniProt P35462). As to the kind of experiment: Partial agonist activity at D3 receptor.
For assay [4], the target named is D(2) dopamine receptor (Homo sapiens) (UniProt P14416). As to the kind of experiment: Partial agonist activity at D2 receptor.

Each structure is given as a SMILES string. Calls of active or inactive are those of the source. The rule behind the calls is not given here.

D(3) dopamine receptor (Homo sapiens), sequence (P35462 whole entry): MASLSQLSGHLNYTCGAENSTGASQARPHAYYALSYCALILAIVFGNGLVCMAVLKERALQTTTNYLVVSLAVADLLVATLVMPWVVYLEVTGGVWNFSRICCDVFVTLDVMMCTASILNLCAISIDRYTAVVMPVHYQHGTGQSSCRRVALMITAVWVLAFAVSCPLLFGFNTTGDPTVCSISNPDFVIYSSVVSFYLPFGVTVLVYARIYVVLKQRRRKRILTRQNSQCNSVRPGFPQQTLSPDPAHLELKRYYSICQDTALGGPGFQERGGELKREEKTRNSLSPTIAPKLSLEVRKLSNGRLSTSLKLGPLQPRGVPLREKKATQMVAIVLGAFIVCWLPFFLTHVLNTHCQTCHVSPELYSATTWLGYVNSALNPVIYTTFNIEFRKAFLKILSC

For orientation: Emax means the maximal effect, on the per cent scale that the assay sets. Take `Clc1cccc(N2CCNCC2)c1Cl`: the Emax stood at 57.3% in assay [1] and 40.4% in assay [2].
For the compound `COc1ccccc1N1CCN(CCCCNC(=O)c2cc3ccccc3[nH]2)CC1`, the result in assay [3] and in assay [4] was Active. Also, the maximal response (Emax) in assay [1] and in assay [2] was 8% throughout.
In turn, `COc1ccccc1N1CCNCC1` returned an Emax in assay [2] of 14%.
On to `O=C(NCCCCN1CCN(c2cccc(Cl)c2Cl)CC1)c1cc2ccccc2[nH]1`, for which the outcome in assay [3] was Active.
